In patent US8138158B2, “Compositions and methods for therapy for diseases characterized by defective chloride transport” (Children's Hospital & Research Center at Oakland, priority 1997, dated 2012):

How the values were obtained:
[1] = target: T1, CFTR Cl channels (Homo sapiens, UniProt P13569); assay: Outside-out single channel patch clamp on Calu-3 cells; assay type: cell-based
T1 construct: Calu-3 airway cells which express large amounts of native CFTR; endogenous in cells; host or cells: Calu-3 human airway epithelial cells
T1 sequence (P13569 whole entry): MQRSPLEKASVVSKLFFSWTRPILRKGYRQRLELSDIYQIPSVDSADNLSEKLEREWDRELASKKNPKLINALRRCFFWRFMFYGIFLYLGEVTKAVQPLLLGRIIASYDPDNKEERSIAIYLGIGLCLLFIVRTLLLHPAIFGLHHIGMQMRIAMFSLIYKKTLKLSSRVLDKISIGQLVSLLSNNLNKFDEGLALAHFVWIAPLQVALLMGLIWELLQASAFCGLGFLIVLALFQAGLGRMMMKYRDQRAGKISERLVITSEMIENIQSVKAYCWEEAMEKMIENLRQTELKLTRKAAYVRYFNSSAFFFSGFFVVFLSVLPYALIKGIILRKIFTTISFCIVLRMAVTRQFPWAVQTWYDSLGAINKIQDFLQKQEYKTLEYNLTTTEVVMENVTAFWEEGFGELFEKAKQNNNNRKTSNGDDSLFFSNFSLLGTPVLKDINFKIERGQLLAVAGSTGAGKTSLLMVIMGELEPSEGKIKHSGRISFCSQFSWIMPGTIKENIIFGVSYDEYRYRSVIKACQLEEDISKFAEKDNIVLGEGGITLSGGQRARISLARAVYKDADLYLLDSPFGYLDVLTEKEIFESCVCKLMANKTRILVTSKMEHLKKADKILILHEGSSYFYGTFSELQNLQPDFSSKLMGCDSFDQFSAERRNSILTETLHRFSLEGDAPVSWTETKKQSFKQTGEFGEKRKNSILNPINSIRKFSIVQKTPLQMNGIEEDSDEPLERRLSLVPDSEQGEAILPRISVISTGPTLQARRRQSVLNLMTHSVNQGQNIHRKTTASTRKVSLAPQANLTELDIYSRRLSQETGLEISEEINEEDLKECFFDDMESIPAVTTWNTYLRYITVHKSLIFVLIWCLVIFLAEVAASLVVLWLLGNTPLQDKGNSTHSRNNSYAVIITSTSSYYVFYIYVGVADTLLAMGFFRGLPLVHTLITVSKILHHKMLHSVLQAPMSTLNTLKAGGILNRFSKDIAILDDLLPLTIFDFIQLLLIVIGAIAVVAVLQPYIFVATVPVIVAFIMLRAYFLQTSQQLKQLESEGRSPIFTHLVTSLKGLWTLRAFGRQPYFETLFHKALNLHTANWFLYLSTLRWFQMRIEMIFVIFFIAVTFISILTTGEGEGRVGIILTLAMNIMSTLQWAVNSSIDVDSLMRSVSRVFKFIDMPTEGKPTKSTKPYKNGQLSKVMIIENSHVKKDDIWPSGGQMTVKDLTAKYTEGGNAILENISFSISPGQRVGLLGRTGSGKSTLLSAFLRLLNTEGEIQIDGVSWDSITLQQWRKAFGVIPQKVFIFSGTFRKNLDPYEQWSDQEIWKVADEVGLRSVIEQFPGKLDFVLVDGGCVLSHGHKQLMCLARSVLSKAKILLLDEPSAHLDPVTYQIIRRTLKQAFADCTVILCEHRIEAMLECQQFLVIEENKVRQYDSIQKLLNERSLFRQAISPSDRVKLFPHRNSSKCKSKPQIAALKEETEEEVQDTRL
Procedure: Patch clamp analysis. Single channel patch clamp studies were performed on Calu-3 cells at 37° C. The outside-out recording mode was established via the whole cell mode as described (Fischer, H. (2001) in Methods in Molecular Medicine, […]. & Walker, J. M. (Humana Press Inc, Totowa), pp. 49-66.). The bath solution contained (in mM) 145 NaCl, 1.7 CaCl2, 1 MgCl2, 10 Hepes, 10 glucose, pH=7.4. The pipette solution contained (in mM): 15 N-methyl-D-glucamine (NMG) Cl, 10 EGTA, 1 MgCl2, 10 Hepes, 10 glucose, 120 NMG-gluconate, 5 MgATP, 0.1 LiGTP, pH=7.4. […] The regulatory role of vitamin C on Cl ion channel activity was studied in Calu-3 airway cells which express large amounts of native CFTR as their major Cl conductance ([…]., Widdicombe, J. H. & Wine, J. J. (1994) Am. J. Physiol. 266, […]-[…]). […] Details of the single channel recording are illustrated in FIG. 20C. […] At negative potentials no channel openings were resolved indicating Cl-over-gluconate selectivity. Cyclic AMP is the major intracellular messenger for the activation of CFTR. We tested the possibility that L-ascorbic acid increased intracellular cAMP levels [cAMP], by either turning on cAMP production or preventing cAMP degradation. FIG. 20E compares whole cell cAMP levels of Calu-3 cells challenged with either increasing concentrations of L-ascorbic acid or the cAMP agonist forskolin.

[2] = test system: CF15 monolayers homozygous for ΔF508 CFTR; assay: Short-circuit current across CF15 monolayers homozygous for ΔF508 CFTR; assay type: cell-based, human
Procedure: Human airway cell culture. The human submucosal serous gland-like cell line Calu-3, the CF nasal epithelial cell line homozygous for ΔF508 CFTR (CF15) and human tracheal primary cultures (hTE) were cultured as described (Jefferson, D. M., Valentich, J. D., Marini, F. C., Grubman, S. A., Iannuzzi, M. C., Dorkin, H. L., Li, M., Klinger, K. W. & Welsh, M. J. (1990) Am. J. Physiol. 259, L496-L505. Sachs, L. A., Finkbeiner, W. E. & Widdicombe, J. H. (2003) In Vitro Cell Dev. Biol. Anim. 39, 56-62.). Wildtype CFTR-corrected CF15 cells were generated via adenovirus-mediated gene transfer. Growth media were nominally free of ascorbic acid (<10 μm, University Pathology Inc., Salt Lake City, Utah). For transepithelial measurements cells were grown on permeable filter inserts and used after 3 to 10 days.
Short-circuit current measurement. Calu-3 or CF15 cells were grown as monolayers, mounted in Ussing chambers and short-circuit current (ISC) was recorded as described (Illek, B. & Fischer, H. (1998) Am. J. Physiol. 275, L902-L910). At 20-50 second intervals, transepithelial voltage was clamped from zero to 2 mV and the transepithelial resistance (Rte) was calculated. A serosa-to-mucosa-directed Cl gradient was applied. Serosal Ussing chamber solution contained (in mM): 120 NaCl, 20 NaHCO3, 5 KHCO3, 1.2 NaH2PO4, 5.6 glucose, 2.5 CaCl2, 1.2 MgCl2. In mucosal Ussing chamber solutions, all Cl salts were exchanged for gluconate salts.
The CF15 cell line was used to determine whether ascorbate-stimulated Cl currents were solely mediated by the CFTR Cl conductance. The CF15 cell line is characterized by the absence of functional CFTR in the apical plasma membrane but the presence of other non-CFTR Cl conductances (Jefferson, D. M., Valentich, J. D., Marini, F. C., Grubman, S. A., Iannuzzi, M. C., Dorkin, H. L., Li, M., Klinger, K. W. & Welsh, M. J. (1990) Am. J. Physiol. 259, L496-L505). A concentration of L-ascorbic acid that lay within the upper plateau of the dose response curve (500 μm) was applied and ascorbate-stimulated Cl currents in CF15 vs. wildtype CFTR-corrected CF15 monolayers was compared (FIG. 23A). […] The defective response to L-ascorbic acid was reversed in wildtype CFTR-corrected CF15 epithelia such that ISC responded promptly to L-ascorbic acid (ΔISC=7.5±0.5 μA/cm^2, n=6). The ascorbate-stimulated current was further activated by the cAMP agonist forskolin and total stimulated ISC averaged 12.1±1.1 μA/cm^2 (FIG. 4B). The ascorbate-stimulated Cl current reached 60±15% of the forskolin-stimulated current in CFTR-corrected CF15 monolayers, which was close to the corresponding findings in Calu-3 monolayers (68%, see FIG. 21A). […]
In this example, chloride currents stimulated by L-ascorbate or D-ascorbate were measured in CF15 versus. wildtype CFTR-corrected CF15 monolayers. A concentration of L-ascorbate (1 mM) or D-isoascorbate (300 μm) that lay within the upper plateau of the dose-response curve was applied to cells and the resulting chloride currents stimulated in CF15 versus wildtype CFTR-corrected CF15 monolayers were measured (FIG. 25 A-H). […]
The functional activation of ΔF508 CFTR was determined after correction of the underlying trafficking defect of ΔF508 CFTR using S-Nitrosoglutathione (Zaman, et al., Biochem Biophys Res Commun 284: 65-70, 2001; Snyder, et al., American Journal of Respiratory and Critical Care Medicine 165: 922-6, 2002; Andersson, et al. Biochemical and Biophysical Research Communication 297(3): 552-557, 2002.). […]

- average single channel open probability (Po) increased from zero to ([1]; 100 μM L-ascorbic acid, n=4): 0.21±0.08
- CFTR Cl channel openings ([1]; applied to extracellular surface of the patched membrane): induced openings of CFTR Cl channels
- slope conductance of ascorbate-stimulated chloride conductance ([1]; n=4): 8.9±0.2 pS
SMILES: O=C1O[C@H](C(O)CO)C(O)=C1O (stereo partly drawn) [L-ascorbic acid, L-xyloascorbic acid]
- transepithelial chloride currents increased on average by ([2]; CF15 treated with 1 mM SNOG for 5-24 hours, L-ascorbate 1 mM, n=10): 2.1±0.1
- ΔISC ([2]; uncorrected CF15, L-ascorbic acid 500 μm, n=5): 1.3±0.5 μA/cm^2
- ΔIsc ([2]; untreated CF epithelia, L-ascorbate 1 mM, amiloride, n=13): 1.1±0.3 μA/cm^2
